Test [1] concerns HCV genotype 1b (Con1) replicon in HUH-7 cells. The experiment in a line: HCV replicon luciferase reporter assay, genotype 1b. The format is cell-based. The settings on record: Hepatitis C virus, Huh-7, 72 h, HCV genotype 1b replicon luciferase, 3 days incubation, read-out: LE_1b (EC50, range). In outline: (§1)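 Replicon inhibition for both genotypes was measured as Renilla luciferase signal (EnduRen, 7.5 μM final, 2 h) after 3-day, 37° C exposure of replicon-bearing HUH-7 cells in 4% FCS DMEM, 0.5% DMSO. The 1b construct carries S1179I; the 1a H77 construct carries P1496L and S2204I. Twenty-point, 3-fold dilutions were fitted four-parametrically for EC50, and CC50 was taken from multiplexed Cell Titer-Blue.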
Background: A replicon is a self-replicating genome or part of one, used to study replication in cells.

Test [2] concerns HCV genotype 1a (H77 strain) replicon in HUH-7 cells. The experiment in a line: HCV replicon luciferase reporter assay, genotype 1a. The format is cell-based. The settings on record: Hepatitis C virus, Huh-7, 72 h, HCV genotype 1a replicon luciferase, 3 days incubation, read-out: LE_1a (EC50, range). In outline: as §1

Structures are written as SMILES. Where two headings read alike, the source gives them in different places.

Usually EC50 stands for the concentration giving half of the maximal effect. As to `CC[C@@H]1C[C@H](C)CC/C=C\[C@@H]2C[C@@]2(C(=O)NS(=O)(=O)C2(C)CC2)NC(=O)[C@@H]2C[C@@H](Oc3nccc4cc(OC)c(F)cc34)CN2C(=O)[C@H]1NC(=O)N1CCOCC1` [Compound 4333, N-((2R,6S,7R,9R,13aS,14aR,16aS,Z)-7-ethyl-2-((7-fluoro-6-methoxyisoquinolin-1-yl)oxy)-9-methyl-14a-(((1-methylcyclopropyl)sulfonyl)carbamoyl)-5,16-dioxo-1,2,3,5,6,7,8,9,10,11,13a,14,14a,15,16,16a-hexadecahydrocyclopropa[e]pyrrolo[1,2-a][1,4]diazacyclopentadecin-6-yl)morpholine-4-carboxamide], the EC50 in test [1] and in test [2] was 5.01 to 35 nM throughout.
Consider `CC[C@@H]1C[C@H](C)CC/C=C\[C@@H]2C[C@@]2(C(=O)NS(=O)(=O)C2(C)CC2)NC(=O)[C@@H]2C[C@@H](Oc3nccc4cc(OC)c(F)cc34)CN2C(=O)[C@H]1NC(=O)N1CC(C)OC(C)C1` (stereo partly drawn) [Compound 4334, N-((2R,6S,7R,9R,13aS,14aR,16aS,Z)-7-ethyl-2-((7-fluoro-6-methoxyisoquinolin-1-yl)oxy)-9-methyl-14a-(((1-methylcyclopropyl)sulfonyl)carbamoyl)-5,16-dioxo-1,2,3,5,6,7,8,9,10,11,13a,14,14a,15,16,16a-hexadecahydrocyclopropa[e]pyrrolo[1,2-a][1,4]diazacyclopentadecin-6-yl)-2,6-dimethylmorpholine-4-carboxamide], for which the 50% effective concentration (EC50) in test [1] and in test [2] was 1.01 to 5 nM each time.
`CC[C@@H]1C[C@H](C)CC/C=C\[C@@H]2C[C@@]2(C(=O)NS(=O)(=O)C2(C)CC2)NC(=O)[C@@H]2C[C@@H](Oc3nccc4cc(OC)c(F)cc34)CN2C(=O)[C@H]1NC(=O)N1CCN(C)CC1` [Compound 4335, (2R,6S,7R,9R,13aS,14aR,16aS,Z)-7-ethyl-2-((7-fluoro-6-methoxyisoquinolin-1-yl)oxy)-9-methyl-N-((1-methylcyclopropyl)sulfonyl)-6-(4-methylpiperazine-1-carboxamido)-5,16-dioxo-1,2,3,5,6,7,8,9,10,11,13a,14,14a,15,16,16a-hexadecahydrocyclopropa[e]pyrrolo[1,2-a][1,4]diazacyclopentadecine-14a-carboxamide]: the concentration giving a half-maximal response (EC50) in test [1] and in test [2] was 5.01 to 35 nM each time.
Turning to `CC(C)Oc1ccc2nc(C(F)(F)F)c(O[C@@H]3C[C@H]4C(=O)N[C@]5(C(=O)NS(=O)(=O)C6(C)CC6)C[C@H]5/C=C\CC[C@@H](C)C[C@@H](C)[C@H](NC(=O)OC(C)(C)C(F)(F)F)C(=O)N4C3)nc2c1` [Compound 4336], the concentration giving a half-maximal response (EC50) in test [1] (GETYPE1B) and in test [2] (GETYPE1A) was 0.51 to 1 nM throughout.
For `CC[C@@H]1C[C@H](C)CC/C=C\[C@@H]2C[C@@]2(C(=O)NS(=O)(=O)C2CC2)NC(=O)[C@@H]2C[C@@H](Oc3nc4cc(OC(C)C)ccc4nc3C(F)(F)F)CN2C(=O)[C@H]1NC(=O)OC(C)(C)C` [Compound 4337, tert-butyl ((2R,6S,7R,9R,13aS,14aR,16aS,Z)-14a-((cyclopropylsulfonyl)carbamoyl)-7-ethyl-2-((7-isopropoxy-3-(trifluoromethyl)quinoxalin-2-yl)oxy)-9-methyl-5,16-dioxo-1,2,3,5,6,7,8,9,10,11,13a,14,14a,15,16,16a-hexadecahydrocyclopropa[e]pyrrolo[1,2-a][1,4]diazacyclopentadecin-6-yl)carbamate], the EC50 in test [1] and in test [2] was 0.51 to 1 nM in each case.
Turning to `CC[C@@H]1C[C@H](C)CC/C=C\[C@@H]2C[C@@]2(C(=O)NS(=O)(=O)C2CC2)NC(=O)[C@@H]2C[C@@H](Oc3nc4cc(OC(C)C)ccc4nc3C(F)(F)F)CN2C(=O)[C@H]1NC(=O)OC(C)(C)C(F)(F)F` [Compound 4338], the half-maximal effective concentration (EC50) in test [1] (GETYPE1B) and in test [2] (GETYPE1A) was 1.01 to 5 nM in each case.
As to `COc1cnc2ccc(O[C@@H]3C[C@H]4C(=O)N[C@]5(C(=O)NS(=O)(=O)C6(C)CC6)C[C@H]5/C=C\CC[C@@H](C)C[C@@H](C)[C@H](NC(=O)OC(C)(C)C(F)(F)F)C(=O)N4C3)cc2n1` [Compound 4339], the EC50 in test [1] (GETYPE1B) and in test [2] (GETYPE1A) was 0.1 to 0.5 nM in each case.
On to `CC[C@@H]1C[C@H](C)CC/C=C\[C@@H]2C[C@@]2(C(=O)NS(=O)(=O)C2CC2)NC(=O)[C@@H]2C[C@@H](Oc3cnnc4cc(OC)ccc34)CN2C(=O)[C@H]1NC(=O)OC(C)(C)C` [Compound 4340, tert-butyl ((2R,6S,7R,9R,13aS,14aR,16aS,Z)-14a-((cyclopropylsulfonyl)carbamoyl)-7-ethyl-2-((7-methoxycinnolin-4-yl)oxy)-9-methyl-5,16-dioxo-1,2,3,5,6,7,8,9,10,11,13a,14,14a,15,16,16a-hexadecahydrocyclopropa[e]pyrrolo[1,2-a][1,4]diazacyclopentadecin-6-yl)carbamate], for which the EC50 in test [1] and in test [2] was 5.01 to 35 nM each time.
Turning to `CC[C@@H]1C[C@H](C)CC/C=C\[C@@H]2C[C@@]2(C(=O)NS(=O)(=O)C2(C)CC2)NC(=O)[C@@H]2C[C@@H](Oc3ncc(OC)c4ccc(F)cc34)CN2C(=O)[C@H]1NC(=O)N1CCN(C)CC1` [Compound 4341, (2R,6S,7R,9R,13aS,14aR,16aS,Z)-7-ethyl-2-((7-fluoro-4-methoxyisoquinolin-1-yl)oxy)-9-methyl-N-((1-methylcyclopropyl)sulfonyl)-6-(4-methylpiperazine-1-carboxamido)-5,16-dioxo-1,2,3,5,6,7,8,9,10,11,13a,14,14a,15,16,16a-hexadecahydrocyclopropa[e]pyrrolo[1,2-a][1,4]diazacyclopentadecine-14a-carboxamide], the concentration for a half-maximal effect (EC50) in test [1] and in test [2] was 1.01 to 5 nM throughout.
For the compound `CC[C@@H]1C[C@H](C)CC/C=C\[C@@H]2C[C@@]2(C(=O)NS(=O)(=O)C2CC2)NC(=O)[C@@H]2C[C@@H](Oc3ncc(C(N)=O)c4cc(OC)ccc34)CN2C(=O)[C@H]1NC(=O)OC(C)(C)C` [Compound 4342, tert-butyl ((2R,6S,7R,9R,13aS,14aR,16aS,Z)-2-((4-carbamoyl-6-methoxyisoquinolin-1-yl)oxy)-14a-((cyclopropylsulfonyl)carbamoyl)-7-ethyl-9-methyl-5,16-dioxo-1,2,3,5,6,7,8,9,10,11,13a,14,14a,15,16,16a-hexadecahydrocyclopropa[e]pyrrolo[1,2-a][1,4]diazacyclopentadecin-6-yl)carbamate], the EC50 in test [1] fell in the range of 35 to 620 nM; in test [2] it was 5.01 to 35 nM.
Regarding `CC[C@@H]1C[C@H](C)CC/C=C\[C@@H]2C[C@@]2(C(=O)NS(=O)(=O)C2(C)CC2)NC(=O)[C@@H]2C[C@@H](Oc3ncc(C(N)=O)c4cc(OC)ccc34)CN2C(=O)[C@H]1NC(=O)OC(C)(C)C` [Compound 4343, tert-butyl ((2R,6S,7R,9R,13aS,14aR,16aS,Z)-2-((4-carbamoyl-6-methoxyisoquinolin-1-yl)oxy)-7-ethyl-9-methyl-14a-(((1-methylcyclopropyl)sulfonyl)carbamoyl)-5,16-dioxo-1,2,3,5,6,7,8,9,10,11,13a,14,14a,15,16,16a-hexadecahydrocyclopropa[e]pyrrolo[1,2-a][1,4]diazacyclopentadecin-6-yl)carbamate], the concentration giving a half-maximal response (EC50) in test [1] and in test [2] was 5.01 to 35 nM throughout.
For `CC[C@@H]1C[C@H](C)CC/C=C\[C@@H]2C[C@@]2(C(=O)NS(=O)(=O)C2(C)CC2)NC(=O)[C@@H]2C[C@@H](Oc3nccc4cc(OC)c(F)cc34)CN2C(=O)[C@H]1NC(=O)N1CCC(F)(F)CC1` [Compound 4344, (2R,6S,7R,9R,13aS,14aR,16aS,Z)-6-(4,4-difluoropiperidine-1-carboxamido)-7-ethyl-2-((7-fluoro-6-methoxyisoquinolin-1-yl)oxy)-9-methyl-N-((1-methylcyclopropyl)sulfonyl)-5,16-dioxo-1,2,3,5,6,7,8,9,10,11,13a,14,14a,15,16,16a-hexadecahydrocyclopropa[e]pyrrolo[1,2-a][1,4]diazacyclopentadecine-14a-carboxamide], the 50% effective concentration (EC50) in test [1] and in test [2] was 1.01 to 5 nM in each case.
In the case of `CC[C@@H]1C[C@H](C)CC/C=C\[C@@H]2C[C@@]2(C(=O)NS(=O)(=O)C2CC2)NC(=O)[C@@H]2C[C@@H](Oc3ncc(C(N)=O)c4cc(OC)ccc34)CN2C(=O)[C@H]1NC(=O)OC(C)(C)C(F)(F)F` [Compound 4345], the concentration for a half-maximal effect (EC50) was 35 to 620 nM in test [1] (GETYPE1B) and 5.01 to 35 nM in test [2] (GETYPE1A).
With `CCOc1ccc2nc(C(F)(F)F)c(O[C@@H]3C[C@H]4C(=O)N[C@]5(C(=O)NS(=O)(=O)C6(C)CC6)C[C@H]5/C=C\CC[C@@H](C)C[C@@H](C)[C@H](NC(=O)OC(C)(C)C)C(=O)N4C3)nc2c1` [Compound 4346, tert-butyl ((2R,6S,7R,9R,13aS,14aR,16aS,Z)-2-((7-ethoxy-3-(trifluoromethyl)quinoxalin-2-yl)oxy)-7,9-dimethyl-14a-(((1-methylcyclopropyl)sulfonyl)carbamoyl)-5,16-dioxo-1,2,3,5,6,7,8,9,10,11,13a,14,14a,15,16,16a-hexadecahydrocyclopropa[e]pyrrolo[1,2-a][1,4]diazacyclopentadecin-6-yl)carbamate], the values for the EC50 in test [1] and in test [2] were 0.1 to 0.5 nM and 0.51 to 1 nM, respectively.

These data come from patent US9499550B2 (BRISTOL-MYERS SQUIBB COMPANY, priority 2012, dated 2016).
